Several values for one entry are separate records, joined by “and”; a condition that tells them apart may be missing. Equal entries are not always repeated.
What was measured:
Daphnia magna = assay: Chronic reproduction toxicity test (OECD 211) with passive dosing; format: in vivo; conditions: for EC10: 21-day reproduction inhibition; for % inhibition, avr.: average of vessels; for % inhibition (of reproduction, per vessel): relative to controls; for wet weight of parent daphnids, change relative to control: end of 21-d exposure
Procedure: (§1) Chronic toxicity tests with D. magna were performed according to the OECD guideline 211^2 using the passive dosing method. Two days before the tests, the exposure solution was predosed by shaking 10 PDMS disks loaded with the test substance in 1 L of medium for 48 h. Each test vessel (250 mL) was first flushed with the dosed solution to equilibrate the vessel walls, then filled with 100 mL of test solution, one PDMS disk, and one juvenile D. magna (<24 h old). The tests were conducted in loosely closed bottles to allow for adequate gas exchange and limit evaporation. The exposure medium was changed three times per week, and the animals were fed D. subspicatus daily (0.2 mg C/Daphnia/day). The number of offspring per adult and behavioral or physiological effects (e.g., size, movement, unhatched eggs) were recorded daily (except weekends). Dissolved oxygen, pH and temperature were also measured each week.
(§2) Tests were performed under static conditions (20 °C, 16:8 h light/dark cycle, 1 klux). Each compound was tested in 10 replicates for controls and limit tests (a single high concentration exposure to screen for significant toxic effects) and with 6 or 10 replicates for concentration–response tests. Reuse of silicone disks was included in some experiments (Table S3). Reproductive inhibition was assessed by counting offspring over 21 days. The number of offspring per mother in treatment groups was compared to controls, and the percent inhibition per replicate was used to generate concentration–response curves. A minimum of five concentrations per compound were tested to determine EC10, EC20, and EC50 values. For each test, three sets of polymers were rotated between loading, dosing, and exposure stages (Figure S2). Initial (before animal and food addition) and final (after 2–3 days of exposure, just before the medium change) water concentrations (CW) were monitored, with the latter collected after centrifugation to remove biomass (e.g., algae, carapaces, or feces).
(§3) All data are presented as average ± standard deviation. Student’s t test was used to analyze significance (p-value >0.05 considered insignificant). Concentration–response curve parameters (effective concentrations and confidence limits) and plots were generated using GraphPad Prism software (V6.01, GraphPad Software, La Jolla, CA, USA). The exposure concentrations were log10 transformed before fitting. Then a four parameters logistic model with variable slope was used to obtain EC10, EC20 and EC50 (see section S5 in SI file for details). Effective chemical activities (EA50) for chronic toxicity were calculated as follows: [drawing 1] 1 […]
(§4) S5. Concentration-response curve (CRC) fitting procedure
(§5) GraphPad Prism version 9.5.1 was used to fit CRC and obtain EC10, EC20, EC50 values and their confidence intervals. The exposure concentrations were log10 transformed before fitting. Then a four parameters logistic model with variable slope was used that describes the response as a function of following four parameters: minimum response (the Bottom), maximum response (the Top), the concentration required to cause a response half-way between the minimum and maximum (the EC50) and the slope of the curve […]
(§6) concentration. The Top was constrained to 100, the Bottom was constrained to 0, the HillSlope was not […]
(§7) !"# %& = !"# %&* − , × !"# 3 * 4
(§8) (, + ,((!"# %&'(<=)×-.!!/!"01)
(§9) Figure S7 Concentration-response curves of four NSO-PAHs based on reproductive inhibition during 21-day chronic toxicity tests with D. magna.
(§10) (1 picture or pasted object on this page, not shown here)

[1] = as above; format: in vivo, Daphnia magna; conditions: Daphnia magna, in vivo, other: waterborne exposure by passive dosing from PDMS disks, 21-day test, read-out: % offspring mortality of total offspring
Procedure: as §1, §2, §3, §4, §5, §6, §7, §8, §9, §10

D. magna = assay: PNEC and risk quotient estimation; set-up: species or system Daphnia magna; conditions: environmental concentration of surrogate (CRB, DBF, DBT) / PNEC
Excerpt: To ensure a precautionary approach, an AF of 100 was applied, which accounts for interspecies variability and uncertainties in extrapolating laboratory findings to real-world conditions.
Environmental concentration (EC) data are obtained from A CRB, B DBF, and C DBT by choosing the highest
concentration that remains below the solubility limit of the respective NSO-PAH, as described in Reference 24.

[2] = Test 5-BCRB, avr. medium concentration 68.16 µg/L, 21 days
[3] = Test 5-BCRB, avr. medium concentration 68.16 µg/L, 21 days, one value per vessel

Which results are given for `c1ccc2c(c1)ccc1[nH]c3ccccc3c12` [BCRB, 7H-benzo[c]carbazole]?
EC10 (Daphnia magna; 97.5-2.5% confidence interval in brackets): 15.0 (8.6-24.3) μg L^-1; EC10 (Daphnia magna; confidence interval in brackets): 69.2 (39.7-111.8) nmol L^-1; growth of parent D. magna (wet weight) (Daphnia magna; 21-day test, p-value <0.05): significantly inhibited D. magna growth; LOEC (lowest observed effect concentration, reproduction inhibition) (Daphnia magna; 21 days, p-value <0.05 vs controls): 9.8 μg L^–1; %offspring mortality (Daphnia magna; BCRB 3.99 µg/L, 21 days): 3.29%; % inhibition, avr. (Daphnia magna; BCRB 3.99 µg/L, 21 days): 0.7%; #average live offspring (Daphnia magna; BCRB 3.99 µg/L, 21 days, per mother): 83; #total live offspring (Daphnia magna; BCRB 3.99 µg/L, 21 days, sum of all vessels): 499; %offspring mortality (Daphnia magna; BCRB 9.55 µg/L, 21 days): 4.04%; % inhibition, avr. (Daphnia magna; BCRB 9.55 µg/L, 21 days): 15.0%; #average live offspring (Daphnia magna; BCRB 9.55 µg/L, 21 days, per mother): 71; % inhibition (of reproduction, per vessel) (Daphnia magna; BCRB 9.55 µg/L, 21 days, single vessels 1-6): 6.9%; #total live offspring (Daphnia magna; BCRB 9.55 µg/L, 21 days, sum of all vessels): 427; %offspring mortality (Daphnia magna; BCRB 21.94 µg/L, 21 days): 2.91%; % inhibition, avr. (Daphnia magna; BCRB 21.94 µg/L, 21 days): 20.4%; #average live offspring (Daphnia magna; BCRB 21.94 µg/L, 21 days, per mother): 67; #total live offspring (Daphnia magna; BCRB 21.94 µg/L, 21 days, sum of all vessels): 400; %offspring mortality (Daphnia magna; BCRB 43.46 µg/L, 21 days): 5.62%; % inhibition, avr. (Daphnia magna; BCRB 43.46 µg/L, 21 days): 39.8%; #average live offspring (Daphnia magna; BCRB 43.46 µg/L, 21 days, per mother): 50; % inhibition (of reproduction, per vessel) (Daphnia magna; BCRB 43.46 µg/L, 21 days, single vessels 2-6): 39.1% and 54.6% and 28.4% and 37.9%; #total live offspring (Daphnia magna; BCRB 43.46 µg/L, 21 days, sum of all vessels): 252; Survival of the mother animal (Daphnia magna; BCRB 43.46 µg/L, vessel 1, day 5): dead; Total #offspring per mother (live, per vessel) (Daphnia magna; BCRB avr. medium concentration 3.99 µg/L (methanol for dosing 0.063 g/L), 21 days, single vessels 1-6): 104 and 86 and 87 and 79 and 68 and 75; Total #offspring per mother (live, per vessel) (Daphnia magna; BCRB avr. medium concentration 9.55 µg/L (methanol for dosing 0.125 g/L), 21 days, single vessels 1-6): 68 and 63 and 78 and 79 and 61; Total #offspring per mother (live, per vessel) (Daphnia magna; BCRB avr. medium concentration 21.94 µg/L (methanol for dosing 0.25 g/L), 21 days, single vessels 1-6): 67 and 73 and 77 and 64 and 63 and 56; Total #offspring per mother (live, per vessel) (Daphnia magna; BCRB avr. medium concentration 43.46 µg/L (methanol for dosing 0.5 g/L), 21 days, single vessels 2-6): 51 and 38 and 60 and 52; EA50 (effective chemical activity) (Daphnia magna; EC50/subcooled liquid solubility, eq 1): 0.004 unitless; %offspring mortality (Daphnia magna; [2]): 32.43%; #total live offspring (Daphnia magna; Test 5-BCRB, avr. medium concentration 68.16 µg/L, 21 days, all vessels): 75; % inhibition, avr. (Daphnia magna; [2]): 82.1%; % inhibition (of reproduction, per replicate vessel) (Daphnia magna; [3]): 82.1% and 86.9% and 83.3% and 74.9%; Total #dead offspring per mother (per replicate vessel) (Daphnia magna; [3]): 9 and 2 and 8; #average live offspring (Daphnia magna; Test 5-BCRB, avr. medium concentration 68.16 µg/L, 21 days, per surviving mother): 15; Total #offspring per mother (per replicate vessel) (Daphnia magna; Test 5-BCRB, avr. medium concentration 68.16 µg/L, methanol dosing conc. 1 g/L, 21 days, one value per vessel): 15 and 11 and 14 and 21; Mother survival (parent mortality) (Daphnia magna; Test 5-BCRB, avr. medium concentration 68.16 µg/L, vessel 3, day 5): dead; CTLBB (critical target lipid body burden) (Daphnia magna; derived from chronic EC10 using eq 3): 12.6 μmol g^-1 octanol; wet weight of parent daphnids, change relative to control (Daphnia magna; 4.1 µg/L (Fig. S9)): +17%; wet weight of parent daphnids, change relative to control (Daphnia magna; 9.8 µg/L (Fig. S9)): -14%; wet weight of parent daphnids, change relative to control (Daphnia magna; 21.8 µg/L (Fig. S9)): -15%; wet weight of parent daphnids, change relative to control (Daphnia magna; 44.6 µg/L (Fig. S9)): -34%; wet weight of parent daphnids, change relative to control (Daphnia magna; 68.2 µg/L (Fig. S9)): -77%; swimming behavior (Daphnia magna; two highest exposure concentrations, 22 and 68 μg L^–1): induced locomotor changes; mortality at 21 days, 4.1 µg/L ([1]; 4.1 µg/L (Fig. S8)): 3.3%; mortality at 21 days, 9.8 µg/L ([1]; 9.8 µg/L (Fig. S8)): 4%; mortality at 21 days, 21.8 µg/L ([1]; 21.8 µg/L (Fig. S8)): 2.9%; mortality at 21 days, 44.6 µg/L ([1]; 44.6 µg/L (Fig. S8)): 5.6%; mortality at 21 days, 68.2 µg/L ([1]; 68.2 µg/L (Fig. S8)): 32.4%; RQ (EC/PNEC) (D. magna): 4000
